From paper PMC11672562, “Synthesis and Antibacterial Activity of New 6″-Modified Tobramycin Derivatives” (Antibiotics, 2024)
Converted amounts (≈) assume the structure as drawn. Like-named read-outs stand apart in the source and are kept apart here. Values belong to the compound of their own block, whether it stands above or below them.

Legend:
[1] = tested on: E. coli JW5503 transformed with pJC27 plasmids; experiment: Translation accuracy reporter (mutant β-galactosidase, X-Gal staining); type: cell-based; details: 4a,b, 6a,b and tobramycin 50 mg/mL; streptomycin, kanamycin 5 mg/mL; rifampicin 1 mg/mL
Source text: It is known that tobramycin inhibits protein biosynthesis by the blocking of initiation and inducing translation errors. We have tested whether the new tobramycin derivatives 4a,b and 6a,b retain the ability to induce translation errors. This assay uses an E. coli strain with a plasmid construct that encodes beta-galactosidase in such a way that a functional protein is only synthesized in the presence of translation errors. If the mechanism of action of the antibiotic is related to the translation errors, we observe indigo blue staining along the edge of the inhibition zone because functional b-galactosidase degrades the substrate X-Gal. As a result, if the antibiotic causes translation errors, blue staining forms around the edge of the inhibition zone. […] According to this, an introduction at the 6″-position of the aminoalkylamino or guanidinoalkylamino residues of tobramycin retains an original mechanism of aminoglycoside’s antibacterial activity affecting the protein synthesis.
To qualitatively evaluate translation accuracy in the presence of antibiotics, E. coli JW5503 [34] (kanamycin resistance cassette removed as per) transformed with pJC27 plasmids was utilized. The plasmids encode the β-galactosidase gene containing a mutation in its active center (E537: GAA→GAC/GGG), alongside a control plasmid without the mutation. Active β-galactosidase synthesis could only occur if translation errors were introduced. Petri dishes (9 cm) containing 20 mL of solid LB agar (1.5%) supplemented with chloramphenicol (11.3 μg/mL) and X-Gal (80 μg/mL) were prepared. A secondary layer comprising 3.5 mL of LB agar (0.6%), supplemented with 11.3 μg/mL chloramphenicol and 0.5 mL of liquid culture (A600~1.0), was added and allowed to solidify. Antibiotics were applied to the plates in 1 μL aliquots at the following concentrations: 50 mg/mL for 4a, 4b, 6a, 6b, and tobramycin; 5 mg/mL for streptomycin and kanamycin; and 1 mg/mL for rifampicin. Plates were incubated at 37 °C for 18 h. […] Results were documented using a Samsung Galaxy Tab A71 camera.

[2] = tested on: E. coli JW5503 kanS; experiment: MIC in LB medium, E. coli JW5503 kanS; type: cell-based; details: 18 h
Method: (§1) The determination of the minimum inhibitory concentration (MIC) was performed on three strains from the working collection of MSU: E. coli JW5503 [34], which lacked a kanamycin resistance cassette removed as per the method outlined in [39], and two strains derived from this strain through in vivo selection with kanamycin. The latter strains harbored P610T and P610L substitutions in the fusA gene. For the MIC determination, 100 μL (rows 2–11) and 200 μL (row 1) of LB liquid medium containing a 1:1000 dilution of overnight culture was added to each well of a 96-well transparent plate. Subsequently, 2 μL of a 50 μg/mL antibiotic solution was introduced into the first row, and serial two-fold dilutions were performed across each horizontal row, decreasing the antibiotic concentration incrementally. The final two rows were designated as controls: row 12 contained LB medium without cells or antibiotics, and row 11 contained cells without antibiotics. Following 18 h of incubation at 37 °C with constant agitation, the optical density at 590 nm (A590) was measured using a Victor X5 2030 spectrofluorometer (PerkinElmer, Waltham, MA, USA). The MIC was defined as the antibiotic concentration in the first well where no cell growth occurred. Each experiment was conducted in triplicate for all tested antibiotics.

[3] = tested on: E. coli JW5503 kanS EF-G P610T; experiment: MIC in LB medium, aminoglycoside-resistant mutant EF-G P610T; type: cell-based; details: 18 h
Method: as §1

[4] = tested on: E. coli JW5503 kanS EF-G P610L; experiment: MIC in LB medium, aminoglycoside-resistant mutant EF-G P610L; type: cell-based; details: 18 h
Method: as §1

[5] = tested on: E. coli S30 Extract System, firefly luciferase synthesis; experiment: Cell-free translation inhibition assay (firefly luciferase synthesis); type: biochemical; details: final concentration of 2 μM; water = 100
Method: The inhibitory effects of the tested compounds on in vitro firefly luciferase synthesis were evaluated using the E. coli S30 Extract System for Linear Templates (Promega, Madison, WI, USA), as described previously. Briefly, reaction mixtures with a total volume of 5 μL were prepared, containing 0.1 mM of a mixture of all canonical amino acids, 4 U of RiboLock RNase Inhibitor (Thermo Fisher Scientific, Waltham, MA, USA), and 2 μM of the tested compounds. After pre-incubation at room temperature for 5 min, 100 ng of in vitro-transcribed firefly luciferase mRNA was added. The mixtures were then incubated at 37 °C for 20 min. After incubation, each reaction was supplemented with 5 μL of Bright-Glo™ reagent (Promega, Madison, WI, USA), and chemiluminescence was measured using a VICTOR X5 Multilabel Plate Reader (PerkinElmer, Waltham, MA, USA). The luminescence values were normalized to the negative control (water), which was assigned 100% activity.

[6] = tested on: P. aeruginosa ATCC 27853; experiment: MIC, broth microdilution, P. aeruginosa ATCC 27853; type: cell-based
Method: The microbial strains used in this study were obtained from the collection of the Gause Institute of New Antibiotics. […] Storage was carried out in accordance with CLSI guidelines.
(§2) Activity was evaluated by determining the minimum inhibitory concentration (MIC) values using the microdilution method in Mueller–Hinton Broth (Beckton and Dickinson, Le Pont-de-Claix, France), in accordance with the standard procedure for assessing the antimicrobial susceptibility of microorganisms.
(§3) The analysis was conducted in 96-well microtiter plates (Medpolymer, Saint Petersburg, Russia). The bacterial inoculum was introduced within 15 min of preparation. […] Microbial growth in the presence of the tested compounds was compared to the growth control (without exposure to the test samples). The MIC was defined as the lowest concentration at which visible microbial growth was inhibited.
(§4) The MIC values of the reference strains were required to fall within the acceptable ranges specified in [30], provided that standard assay conditions were maintained.

[7] = tested on: resistant clinical isolates of P. aeruginosa; experiment: MIC against resistant clinical isolates of P. aeruginosa; type: cell-based; details: Pseudomonas aeruginosa, P. aeruginosa strain
Method: (§5) The microbial strains used in this study were obtained from the collection of the Gause Institute of New Antibiotics. […] Storage was carried out in accordance with CLSI guidelines. Prior to experimentation, the bacterial strains were revived from cryopreservation by inoculating them onto trypticase soy agar (Becton, Dickinson, France) and incubating at (36 ± 1) °C for 16–24 h. Individual morphologically homogeneous colonies were then suspended in sterile physiological saline, and the turbidity of the suspension was adjusted to 0.5 McFarland units using a DEN-1 spectrophotometer (Biosan, Riga, Latvia), which corresponds to a concentration of 1.5 × 10^8 CFU/mL.
(§6) The samples were dissolved in sterile distilled water or dimethyl sulfoxide (DMSO), depending on the physicochemical properties of the compounds under investigation, to a concentration of 10,000 µg/mL.
as §2, §3

[8] = tested on: S. aureus ATCC 29213; experiment: MIC, broth microdilution, S. aureus ATCC 29213; type: cell-based
Method: as §5, §6, §2, §3, §4

[9] = tested on: E. coli ATCC 25922; experiment: MIC, broth microdilution, E. coli ATCC 25922; type: cell-based
Method: as §5, §6, §2, §3, §4

[10] = tested on: E. coli JW5503; experiment: MIC, broth microdilution, E. coli JW5503; type: cell-based; details: E. coli JW5503; Table 1
Method: as §5, §6, §2, §3

[11] = tested on: M. smegmatis ATCC 607; experiment: MIC, broth microdilution, M. smegmatis ATCC 607; type: cell-based; details: Table 1
Method: as §5, §6, §2, §3

[12] = quality control, must fall in acceptable ranges of [30]

Compound: [H]/N=C(/N)N[C@H]1[C@H](O)[C@@H](O)[C@H](O[C@@H]2O[C@@H](C)[C@](O)(C=O)[C@H]2O[C@@H]2O[C@@H](CO)[C@H](O)[C@@H](O)[C@@H]2NC)[C@@H](N/C(N)=N\[H])[C@@H]1O [streptomycin, reference compound]
induction of translation errors (blue staining at edge of inhibition zone) [1]: acted as miscoding inductors

Compound: CC[C@H]1OC(=O)[C@H](C)[C@@H](O[C@H]2C[C@@](C)(OC)[C@@H](O)[C@H](C)O2)[C@H](C)[C@@H](O[C@@H]2O[C@H](C)C[C@H](N(C)C)[C@H]2O)[C@](C)(O)C[C@@H](C)C(=O)[C@H](C)[C@@H](O)[C@]1(C)O [Erythromycin, erythromycin, reference compound]
MIC ([2]; Escherichia coli, JW5503KANS): 2 µg/mL (≈ 2.73 µM)
MIC ([3]; Escherichia coli): 2 µg/mL (≈ 2.73 µM)
MIC ([4]; Escherichia coli): 2 µg/mL (≈ 2.73 µM)
% control signal (relative maximal rate of firefly luciferase accumulation in vitro) [5]: 0.8%

MIC ([6]; Pseudomonas aeruginosa, ATCC27853, P. aeruginosa ATCC 27853, Table 2, read-out: MIC): 4 µg/mL (≈ 9.19 µM)
MIC ([7]; Table 2 column 3, head prints 27853): 16 µg/mL (≈ 36.7 µM)
MIC ([7]; Table 2 column 4, head prints 27853): 8 µg/mL (≈ 18.4 µM)
MIC ([7]; Table 2 column 5, head prints 27853): 32 µg/mL (≈ 73.5 µM)
MIC ([7]; Table 2 column 6, head prints 27853): 16 µg/mL (≈ 36.7 µM)
MIC ([7]; Table 2 column 7, head prints 27853): 16 µg/mL (≈ 36.7 µM)
Compound: C[C@H]1[C@H](NC(=O)/C(=N\OC(C)(C)C(=O)O)c2csc(N)n2)C(=O)N1S(=O)(=O)O [Aztreonam, aztreonam, reference compound]

Compound: CO[C@H]1/C=C/O[C@@]2(C)Oc3c(C)c(O)c4c(O)c(c(/C=N/N5CCN(C)CC5)c(O)c4c3C2=O)NC(=O)/C(C)=C\C=C\[C@H](C)[C@H](O)[C@@H](C)[C@@H](O)[C@@H](C)[C@H](OC(C)=O)[C@@H]1C [Rifampicin, rifampicin, reference compound]
MIC ([2]; Escherichia coli, JW5503KANS): 5 µg/mL (≈ 6.08 µM)
MIC ([3]; Escherichia coli): 5 µg/mL (≈ 6.08 µM)
MIC ([4]; Escherichia coli): 5 µg/mL (≈ 6.08 µM)
% control signal (relative maximal rate of firefly luciferase accumulation in vitro) [5]: 87%
induction of translation errors (blue staining at edge of inhibition zone) [1]: does not induce ribosomal errors

Compound: kanamycin A [reference compound]
MIC ([8]; Table 1): 0.5 µg/mL
MIC of control antibiotic [8, 12]: 1 to 4 µg/mL
MIC ([9]; Table 1): 1 µg/mL
MIC of control antibiotic [9, 12]: 1 to 4 µg/mL
MIC [10]: 1 µg/mL
MIC ([6]; P. aeruginosa ATCC 27853, Table 1): >32 µg/mL
MIC ([6]; P. aeruginosa ATCC 27853, Table 1, listed as kanamycin): > 32 µg/mL
MIC [11]: 0.125 µg/mL
MIC ([2]; E. coli JW5503 kanS, LB medium): 5 µg/mL
MIC ([3]; E. coli JW5503 kanS EF-G P610T, LB medium): 80 µg/mL
MIC ([4]; E. coli JW5503 kanS EF-G P610L, LB medium): 80 µg/mL
% control signal (relative maximal rate of firefly luciferase accumulation in vitro) [5]: 0.1%
induction of translation errors (blue staining at edge of inhibition zone) [1]: acted as miscoding inductors
